# Laboratory results published in patent publication US10010619B2, “Bipartite inhibitors of bacterial RNA polymerase” (priority 2011, dated 2018).
# Like-named read-outs stand apart in the source and are kept apart here.
# Tests used:
# [1] = target: T1, rifamycin-resistant Escherichia coli RNAP derivative ([Asn516]β-RNAP) (Escherichia coli, UniProt P0A8V2, D516N); experiment: Fluorescence-detected RNA polymerase assay, rifamycin-resistant RNAP derivative; format: biochemical
# T1 construct: made in house
# Method: (§1) Fluorescence-detected RNA polymerase assays with E. coli RNA polymerase were performed by a modification of the procedure of Kuhlman et al., 2004 [Kuhlman, P., Duff, H. and Galant, A. (2004) A fluorescence-based assay for multisubunit DNA-dependent RNA polymerases. Anal. Biochem. 324, 183-190]. Reaction mixtures contained (20 μl): 0-100 nM test compound, 75 nM Escherichia coli RNA polymerase σ^70 holoenzyme or Escherichia coli RNA polymerase σ^70 holoenzyme derivative (prepared as in Feklistov, A., Mekler, V., Jiang, Q., Westblade, L., Irschik, H., Jansen, R., Mustaev, A., Darst, S., and Ebright, R. (2008) Proc. Natl. Acad. Sci. USA 105, 14820-14825), 20 nM 384 bp DNA fragment containing the bacteriophage […] N25 promoter, 100 μM ATP, 100 μM GTP, 100 μM UTP, 100 μM CTP, 50 mM Tris-HCl, pH 8.0, 100 mM KCl, 10 mM MgCl2, 1 mM DTT, 10 μg/ml bovine serum albumin, and 5.5% glycerol. Reaction components other than DNA and NTPs were pre-incubated for 10 min at 37° C. Reactions were carried out by addition of DNA and incubation for 5 min at 37° C., followed by addition of NTPs and incubation for 60 min at 37° C. DNA was removed by addition of 1 μl 5 mM CaCl2 and 2 U DNaseI (Ambion, Inc.), followed by incubation for 90 min at 37° C. RNA was quantified by addition of 100 μl RiboGreen RNA Quantitation Reagent (Invitrogen, Inc.; 1:500 dilution in Tris-HCl, pH 8.0, 1 mM EDTA), followed by incubation for 10 min at 25° C., followed by measurement of fluorescence intensity [excitation wavelength=485 nm and emission wavelength=535 nm; QuantaMaster QM1 spectrofluorimeter (PTI, Inc.)]. IC50 is defined as the concentration of inhibitor resulting in 50% inhibition of RNA polymerase activity.
# [2] = target: T2, GE23077-resistant Escherichia coli RNAP derivative ([Asp565]β-RNAP) (Escherichia coli, UniProt P0A8V2, E565D); experiment: biochemical
# T2 construct: made in house
# Method: as §1, with “Reactions were carried out by addition of DNA and incubation for 5 min at 37° C., followed by addition of NTPs and incubation for 60 min at 37° C. DNA was removed by addition of 1 μl 5 mM CaCl2 and 2 U DNaseI (Ambion, Inc.), followed by incubation for 90 min at 37° C.” left out, “IC50 is defined as the concentration of inhibitor resulting in 50% inhibition of RNA polymerase activity.” left out
# [3] = tested on: Staphylococcus aureus ATCC 12600; experiment: Broth microdilution MIC, S. aureus; format: cell-based; conditions: ATCC12600
# Source text: (§2) Minimum inhibitory concentrations (MICs) for Staphylococcus aureus ATCC 12600, Enterococcus faecalis ATCC 19433, Acinetobacter baumannii ATCC 19606, and Escherichia coli D21f2tolc (Fralick, J. and Burns-Keliher, L. (1994) J. Bacteriol. 176, 6404-6406) were quantified using broth microdilution assays as described [Clinical and Laboratory Standards Institute (CLSI/NCCLS) (2009) Methods for Dilution Antimicrobial Susceptibility Tests for Bacteria That Grow Aerobically; Approved Standard, Eighth Edition. CM Document M07-A8 (CLIS, Wayne Pa.)].
# [4] = tested on: Escherichia coli D21f2tolC; experiment: Broth microdilution MIC, E. coli D21f2tolC; format: cell-based
# Source text: as §2
# [5] = tested on: Enterococcus faecalis ATCC 19433; experiment: Broth microdilution MIC, E. faecalis; format: cell-based; conditions: ATCC19433
# Source text: as §2
# [6] = tested on: Acinetobacter baumannii ATCC 19606; experiment: Broth microdilution MIC, A. baumannii; format: cell-based; conditions: ATCC19606
# Source text: as §2
Compound,"IC50 ([1]; read-out: IC50, rifamycin-resistant derivative of Escherichia coli RNAP [Asn516]β RNAP)",IC50 [2],"potency relative to GE23077 on [Asp565]β RNAP ([2]; ratio of IC50s, times higher than GE23077)",MIC [3],MIC [4],MIC [5],MIC [6],IC50 [1],"potency relative to rifamycin SV on [Asn516]β RNAP ([1]; ratio of IC50s, times higher than rifamycin SV)"
"CO[C@H]1/C=C/O[C@@]2(C)Oc3c(C)c(O)c4c(O)c(cc(O)c4c3C2=O)NC(=O)/C(C)=C\C=C\[C@H](C)[C@H](O)[C@@H](C)[C@@H](O)[C@@H](C)[C@H](OC(C)=O)[C@@H]1C [rifamycin SV, reference compound]",12000 nM,,,,,,,,
"CO[C@H]1/C=C/O[C@@]2(C)Oc3c(C)c(O)c4c(O)c(c(NC(C)C(C)C(=O)NCC5NC(=O)CNC(=O)C(O)CNC(=O)C(C(C)O)NC(=O)C(C(O)C(O)C(N)=O)NC(=O)C(C(C)C)CC(=O)C(CO)NC5=O)c(O)c4c3C2=O)NC(=O)/C(C)=C\C=C\[C@H](C)C(O)C(C)[C@@H](O)[C@@H](C)[C@H](OC(C)=O)[C@@H]1C (stereo partly drawn) [compound 3, {rifamycin SV}-NH-{descarboxy-GE23077}]",,20 nM,"> 5,000 times",0.05 µg/mL,2 µg/mL,6 µg/mL,10 µg/mL,150 nM,80 times
